Here are results for eleven molecules from patent publication US10766912B2 (priority 2017, dated 2020).

Like-named read-outs stand apart in the source and are kept apart here.

Assay type in all cases: cell-based
Series [1] concerns HCV GT1b/3a NS5A chimeric replicon. Briefly: Assay Example 1: activity against HCV GT1b/3a NS5A chimeric replicon. Conditions: Hepatitis C virus, Huh-7, 72 h, read-out: EC50 value GT1b/3a NS5A chimeric replicon. As for the experimental part: (§1) Cells: Huh 7 cell line and HCV GT1b/3a and GT1b/6a NS5A chimeric replicons and GT1b and GT1a wild-type replicon RNA.
(§2) Treatment of Compound: According to the assay final concentrations of the compounds in Table 2, DMSO stock solutions of the compounds were diluted and then added to a 96-well assay plate. The final concentration of DMSO was 0.5%.
(§3) The preparation of cells: After replicon plasmid DNA was linearized with a corresponding restriction enzyme, the DNA was transcribed into RNA by using T7RNA polymerase. Replicon RNA prepared by transcription in vitro was transfected into Huh-7 cells by electroporation. Transfected cells were seeded at a density of 10,000 cells per well into the 96-well assay plate containing the diluted compounds, and then the plate was placed in a 37° C. incubator with 5% CO2 and cultured for 3 days.
(§4) Drug activity assay: Luminescence signal value (RLU) was detected with Envision within 15 minutes using the luciferase assay reagent Britelite plus, and the original data (RLU) was used for the calculation of the activity of the compounds.
(§5) The activity of the compounds was calculated by using the equation below: Inhibition %=(ZPE−CPD)/(ZPE−HPE)×100%*
(§6) The cell viability percentages (Viability %) and the inhibition percentages (Inhibition %) were imported into GraphPad Prism software, respectively, and curves were fitted by using nonlinear regression method to obtain the corresponding curves of the compounds, and the cytotoxicity (CC50) thereof and inhibitory activity (EC50) values against the HCV replicon thereof.

Series [2] deals with HCV GT1b/6a NS5A chimeric replicon. Briefly: Assay Example 1: activity against HCV GT1b/6a NS5A chimeric replicon. Conditions: Hepatitis C virus, Huh-7, 72 h, read-out: EC50 value GT1b/6a NS5A chimeric replicon. As for the experimental part: as §1, §2, §3, §4, §5, §6
Series [3] has as its system HCV GT1a wild-type replicon. In words: Assay Example 1: activity against HCV GT1a wild-type replicon. Conditions: Hepatitis C virus, 72 h, Huh 7 cells, 3 days, luciferase. As for the experimental part:
as §1, §2, §3, §4, §5, §6

The nature of a further series: in vitro. The note with it: human; Huh 7 cells with GT1b wild-type replicon, 3 days, CellTiter-Fluor. On the procedure:
as §1, §2, §3
(§7) Cell viability assay: A cell growth fluorescent titration detection reagent CellTiter-Fluor was added to the 96-well plate of the GT1b wild-type replicon. After the cells were cultured for 1 hour in a 37° C. incubator with 5% CO2, the fluorescence signal value (RFU) was detected by Envision, and the original data (RFU) was used for the calculation of the cytotoxicity of the compounds.
The cytotoxicity of the compounds was calculated by using the equation below: Cell Viability %=(CPD−HPE)/(ZPE−HPE)×100%*
as §6
A general note: In antiviral work, replicon cells carry a viral genome segment that copies itself.

Series [4] deals with HCV GT1b wild-type replicon. In words: Assay Example 1: activity against HCV GT1b wild-type replicon (luciferase, transient transfection). The note with it: Hepatitis C virus, 72 h, Huh 7 cells, 3 days. On the procedure:
as §1, §2, §3, §4, §5, §6

In series [5] the test system is HCV GT1b/3a NS5A chimeric replicon. In words: Assay Example 2: activity against GT1b/3a NS5A chimeric replicon. The note with it: Hepatitis C virus, Huh-7, 72 h, read-out: EC50 Value GT1b/3a-NS5A-wt. On the procedure:
(§8) Cells: Huh-7 cells are liver cancer cell strains (from AppTec, USA), HCV GT1a and GT1b wild type (wt) replicons, GT1b/3a, GT1b/4a, GT1b/5a and GT1b/6a NS5A chimeric replicons.
(§9) Treatment of Compound: According to the assay final concentrations of the compounds in Table 5, DMSO stock solutions of the compounds were diluted and then added to a 96-well assay plate. The final concentration of DMSO was 0.5%.
(§10) The preparation of cells: After replicon plasmid DNA was linearized with a corresponding restriction enzyme, the DNA was transcribed into RNA by using T7 RNA polymerase. Replicon RNA prepared by transcription in vitro was transfected into Huh-7 cells by electroporation. Transfected cells were seeded at a density of 10,000 cells per well into the 96-well assay plate containing the diluted compounds, and then placed in a 37° C. incubator with 5% CO2 and cultured for 3 days.
as §4
(§11) The cytotoxicity of the compounds was calculated by using the equation below: Cell Viability %=(CPD−HPE)/(ZPE−HPE)×100%* The activity of the compounds was calculated by using the equation below: Inhibition %=(ZPE−CPD)/(ZPE−HPE)×100%*
(§12) The cell viability percentages (Viability %) and the inhibition percentages (Inhibition %) were imported into GraphPad Prism software, respectively, and curves were fitted by using nonlinear regression method to obtain the corresponding curves of the compounds, and the cytotoxicity (CC50) thereof and the inhibitory activity (EC50) values against the HCV replicon thereof.

Series [6] deals with HCV GT1b/6a NS5A chimeric replicon. Briefly: Assay Example 2: activity against GT1b/6a NS5A chimeric replicon. Conditions: Hepatitis C virus, Huh-7, 72 h, read-out: EC50 Value GT1b/6a-NS5A-wt. On the procedure:
as §8, §9, §10, §4, §11, §12

Series [7] is described as follows: Assay Example 2: cell viability assay (CellTiter-Fluor), GT1b wild-type replicon plate. The note with it: human, Huh-7 cells with GT1b wild-type replicon, read-out: CC50 Value GT1b-wt. As for the experimental part:
as §8, §9, §10, §7, §11, §12

The test system of series [8] is HCV GT1b wild type (wt) replicon. Briefly: Assay Example 2: activity against HCV GT1b wild-type replicon. The note with it: Hepatitis C virus, read-out: EC50 Value GT1b-wt. As for the experimental part: as §8, §9, §10, §4, §11, §12
Where [9] appears, read: Huh-7 cells transfected with HCV GT1b wild-type replicon RNA.
[10] abbreviates: 72 h, Huh-7 cells, transient transfection, 3 days.

With `COC(=O)N[C@H](C(=O)N1CCC[C@H]1C(=O)Nc1ccc([C@H]2CC[C@H](c3ccc(NC(=O)[C@@H]4CCCN4C(=O)[C@@H](NC(=O)OC)[C@@H](C)OC)cc3)N2c2cc(F)c(N3CC[Si](C)(C)CC3)c(F)c2)cc1)[C@@H](C)OC` [Compound 1b, Methyl ((2S,2′S,3R,3′R)-((2S,2′S)-(((((2R,5R)-1-(4-(4,4-dimethylazasilinan-1-yl)-3,5-difluorophenyl)pyrrolidin-2,5-diyl)bis(4,1-phenylene))bis(azanediyl))bis(carbonyl))bis(pyrrolidin-2,1-diyl))bis (3-methoxy-1-oxobutan-1,2-diyl))dicarbamate], the EC50 in series [1] amounted to 4.8 pM; in [2], 114 pM; in [3], 12 pM; in series [4], 1.7 pM. Also, the CC50 in “in vitro” is more than 100 pM.
The matching figures for `COC(=O)N[C@H](C(=O)N1CCC[C@H]1C(=O)Nc1ccc([C@@H]2CC[C@@H](c3ccc(NC(=O)[C@@H]4CCCN4C(=O)[C@@H](NC(=O)OC)[C@@H](C)OC)cc3)N2c2ccc(N3CC[Si](C)(C)CC3)c(F)c2)cc1)[C@@H](C)OC` [Compound 2a, Methyl ((2S, 2′S, 3R, 3′R)-((2S, 2′S)-(((((2S, 5S)-1-(4-(4,4-dimethylazasilinan-1-yl)-3-fluorophenyl)pyrrolidin-2,5-diyl)bis(4,1-phenylene))bis(azanediyl))bis(carbonyl))bis(pyrrolidin-2,1-diyl))bis(3-methoxy-1-oxobutan-1,2-diyl))dicarbamate]: 6 pM, 242 pM, 12 pM, 2.9 pM and more than 100 pM.
In the case of `COC(=O)N[C@H](C(=O)N1CCC[C@H]1C(=O)Nc1ccc([C@H]2CC[C@H](c3ccc(NC(=O)[C@@H]4CCCN4C(=O)[C@@H](NC(=O)OC)[C@@H](C)OC)cc3)N2c2ccc(N3CC[Si](C)(C)CC3)c(F)c2)cc1)[C@@H](C)OC` [Compound 2b, Methyl ((2S, 2′S, 3R, 3′R)-((2S, 2′S)-(((((2R, 5R)-1-(4-(4,4-dimethylazasilinan-1-yl)-3-fluorophenyl)pyrrolidin-2,5-diyl)bis(4,1-phenylene))bis(azanediyl))bis(carbonyl))bis(pyrrolidin-2,1-diyl))bis(3-methoxy-1-oxobutan-1,2-diyl))dicarbamate], the EC50 is 14 pM in [1], 454 pM in [2], 65 pM in [3] and 16 pM in [4]. In “in vitro”, the cytotoxic concentration (CC50) is more than 100 pM.
With `COC(=O)N[C@H](C(=O)N1CCC[C@H]1C(=O)Nc1ccc([C@@H]2CC[C@@H](c3ccc(NC(=O)[C@@H]4CCCN4C(=O)[C@@H](NC(=O)OC)[C@@H](C)OC)cc3)N2c2cc(F)c(N3CC[Si]4(CCCC4)CC3)c(F)c2)cc1)[C@@H](C)OC` [Compound 3a], the EC50 in series [5] was 6.35 pM; in series [6], 4.5 pM; in series [8] (Huh-7, 72 h) it was 1.33 pM. Also, the CC50 at 3 days in series [7] is more than 200 pM.
Regarding `COC(=O)N[C@H](C(=O)N1CCC[C@H]1c1nc2cc([C@@H]3CC[C@@H](c4ccc5[nH]c([C@@H]6CCCN6C(=O)[C@@H](NC(=O)OC)[C@@H](C)OC)nc5c4)N3c3cc(F)c(N4CC[Si](C)(C)CC4)c(F)c3)ccc2[nH]1)[C@@H](C)OC` [Compound 4a], the EC50 in [1] turned out to be 3.9 pM; in [2], 26 pM; in series [3] it was 5.4 pM; in series [4] it was 11 pM. The same molecule gave a 50% cytotoxic concentration (CC50) in “in vitro” of more than 100 pM.
For `COC(=O)N[C@H](C(=O)N1CCC[C@H]1c1nc2cc([C@H]3CC[C@H](c4ccc5[nH]c([C@@H]6CCCN6C(=O)[C@@H](NC(=O)OC)[C@@H](C)OC)nc5c4)N3c3cc(F)c(N4CC[Si](C)(C)CC4)c(F)c3)ccc2[nH]1)[C@@H](C)OC` [Compound 4b] the same measures were 1.5 pM, 5 pM, 4.1 pM, 5.9 pM and more than 100 pM.
For `COC(=O)N[C@H](C(=O)N1CCC[C@H]1c1nc2cc([C@@H]3CC[C@@H](c4ccc5[nH]c([C@@H]6CCCN6C(=O)[C@@H](NC(=O)OC)[C@@H](C)OC)nc5c4)N3c3ccc(N4CC[Si](C)(C)CC4)c(F)c3)ccc2[nH]1)[C@@H](C)OC` [Compound 5a] the same measures were 13 pM, 174 pM, 17 pM, 19 pM and more than 100 pM.
`COC(=O)N[C@H](C(=O)N1CCC[C@H]1c1nc2cc([C@H]3CC[C@H](c4ccc5[nH]c([C@@H]6CCCN6C(=O)[C@@H](NC(=O)OC)[C@@H](C)OC)nc5c4)N3c3ccc(N4CC[Si](C)(C)CC4)c(F)c3)ccc2[nH]1)[C@@H](C)OC` [Compound 5b]: the EC50 in series [1] was 6.3 pM; in series [2], 16 pM; in series [3], 13 pM; in [4], 17 pM. In addition, in “in vitro”, the CC50 is more than 100 pM.
For `COC(=O)N[C@H](C(=O)N1CCC[C@H]1C(=O)Nc1ccc([C@@H]2CC[C@@H](c3ccc4nc([C@@H]5CCCN5C(=O)[C@@H](NC(=O)OC)[C@@H](C)OC)[nH]c4c3)N2c2cc(F)c(N3CC[Si](C)(C)CC3)c(F)c2)cc1)[C@@H](C)OC` [Compound 6a, Methyl ((2S,3R)-1-((S)-2-(6-((2S,5S)-1-(4-(4,4-dimethylazasilinan-1-yl)-3,5-difluorophenyl)-5-(4-((S)-1-(N-(methoxycarbonyl)-O-methyl-L-threonyl)pyrrolidin-2-formylamino)phenyl)pyrrolidin-2-yl)-1H-benzo[d]imidazol-2-yl)pyrrolidin-1-yl)-3-methoxy-1-oxobutan-2-yl)carbamate] the same measures were 5.2 pM, 230 pM, 14 pM, 5.7 pM and more than 100 pM.
For `COC(=O)N[C@H](C(=O)N1CCCC1C(=O)Nc1ccc([C@@H]2CC[C@@H](c3ccc(-c4cnc([C@@H]5CCCN5C(=O)[C@@H](NC(=O)OC)[C@@H](C)OC)[nH]4)cc3)N2c2cc(F)c(N3CC[Si](C)(C)CC3)c(F)c2)cc1)[C@@H](C)OC` (stereo partly drawn) [Compound 8a], the EC50 came to 79.7 pM in series [5], 9.05 pM in [6] and 2.08 pM in series [8] (setting [10]). Also, the CC50 at 3 days in series [7] (setting [9]) was more than 200 pM.
For `COC(=O)N[C@H](C(=O)N1CCCC1c1nc2cc([C@H]3CC[C@H](c4ccc(-c5cnc([C@@H]6CCCN6C(=O)[C@@H](NC(=O)OC)[C@@H](C)OC)[nH]5)cc4)N3c3cc(F)c(N4CC[Si](C)(C)CC4)c(F)c3)ccc2[nH]1)[C@@H](C)OC` (stereo partly drawn) [Compound 15b], the EC50 was 7.28 pM in series [5] and 2.95 pM in [8] (setting [10]). In series [7] (setting [9]), the half-maximal cytotoxic concentration (CC50) at 3 days is more than 200 pM.

Usually CC50 stands for the concentration that lowers cell viability or growth by half.
